Assay results as given in US5688787A, “Substituted β-lactam compounds useful as hypochlesterolemic agents and processes for the preparation thereof” (priority 1996, dated 1997).
Read-outs that look alike come from different tables or passages of the source.

System: Hyperlipidemic Hamster
Test: In Vivo Assay of Hypolipidemic Agents Using the Hyperlipidemic Hamster
Details: Mesocricetus auratus, po, 168 h; for change in vivo at 3 mg/kg: 3 mg/kg once daily oral; for change in vivo at 10 mg/kg: 10 mg/kg once daily oral; for change in vivo at 30 mg/kg: 30 mg/kg once daily oral
Description: In Vivo Assay of Hypolipidemic Agents Using the Hyperlipidemic Hamster
Hamsters are separated into groups of six and given a controlled cholesterol diet (Purina Chow #5001 containing 0.5% cholesterol) for seven days. Diet consumption is monitored to determine dietary cholesterol exposure in the face of test compounds. The animals are dosed with the test compound once daily beginning with the initiation of diet. Dosing is by oral gavage of 0.2mL of corn oil alone (control group) or solution (or suspension) of test compound in corn oil. All animals roodbund or in poor physical condition are euthanized. After seven days, the animals are anesthetized by IM injection of ketamine and sacrificed by decapitation. Blood is collected into vacutainer tubes containing EDTA for plasma lipid analysis and the liver excised for tissue lipid analysis. Data is reported as percent reduction of lipid versus control.
Using the test procedures described above, the following in vitro and in vivo data were obtained for the preferred compounds, which are referred to in the following table by the corresponding example numbers. For the in vitro ACAT data, negative percent inhibition denotes apparent stimulation,while positive numbers denote inhibition. For the in vivo results, data is reported as percent change versus control, therefore, negative numbers indicate a positive lipid-lowering effect.

[1] = 50 mg/kg once daily oral, 7 days, percent change versus control, negative = lowering, read-out: % Reduction (in vivo) Cholest. Esters
[2] = 50 mg/kg once daily oral, 7 days, percent change versus control, negative = lowering, read-out: % Reduction (in vivo) Serum Cholest.
[3] = read-out: % Reduction (in vivo) Cholest. Esters
[4] = read-out: % Reduction (in vivo) Serum Cholest.
[5] = 7 days, percent change versus control, negative = lowering, read-out: % Reduction (in vivo) Cholest. Esters
[6] = 7 days, percent change versus control, negative = lowering, read-out: % Reduction (in vivo) Serum Cholest.

| SMILES | change in vivo at 50 mg/kg [1] [%] | change in vivo at 50 mg/kg [2] [%] | other results |
| --- | --- | --- | --- |
| COc1ccc([C@@H]2[C@@H](CCCc3ccccc3)C(=O)N2c2cccnc2)cc1 (relative stereo) [Example 1AM] | -29 | -12 | – |
| COc1ccc([C@@H]2[C@@H](CCCc3ccccc3)C(=O)N2c2ccc(OC(F)(F)F)cc2)cc1 (relative stereo) [Example 1AN] | -85 | -34 | – |
| COc1ccc([C@H]2[C@@H](CCCc3ccccc3)C(=O)N2c2ccc(Cl)cc2)cc1 (relative stereo) [Example 1AO] | -78 | -33 | – |
| COc1ccc([C@H]2[C@@H](CCCc3ccccc3)C(=O)N2c2ccc(C)cc2)cc1 (relative stereo) [Example 1AP] | -95 | -51 | – |
| COc1ccc([C@H]2[C@@H](CCCc3ccccc3)C(=O)N2c2ccc(Oc3ccccc3)cc2)cc1 (relative stereo) [Example 1AQ] | -22 | -20 | – |
| COc1ccc(N2C(=O)[C@H](CCCc3ccccc3)[C@H]2c2nccn2COCC[Si](C)(C)C)cc1 (relative stereo) [Example 1AV] | – | – | change in vivo at 50 mg/kg [3]: 0%; change in vivo at 50 mg/kg [4]: 15% |
| COc1ccc(N2C(=O)[C@H](CCCc3ccccc3)[C@@H]2c2nccn2COCC[Si](C)(C)C)cc1 (relative stereo) [Example 1AW] | – | – | change in vivo at 50 mg/kg [3]: -16%; change in vivo at 50 mg/kg [4]: -14% |
| COc1ccc(N2C(=O)[C@H](CCCc3ccccc3)[C@@H]2c2ccc(OC(C)C)cc2)cc1 (relative stereo) [Example 1AY] | -78 | -28 | – |
| CCCOc1ccc([C@H]2[C@@H](CCCc3ccccc3)C(=O)N2c2ccc(OC)cc2)cc1 (relative stereo) [Example 1AZ] | -91 | -37 | – |
| COc1ccc(N2C(=O)[C@H](CCCc3ccccc3)[C@@H]2c2ccc(OC)c(C)c2)cc1 (relative stereo) [Example 1BA] | 0 | 0 | – |
| CCCCOc1ccc([C@H]2[C@@H](CCCc3ccccc3)C(=O)N2c2ccc(OC)cc2)cc1 (relative stereo) [Example 1BR] | -70 | -15 | – |
| COc1ccc(N2C(=O)[C@H](CCCc3ccccc3)[C@@H]2c2ccc(Oc3ccccc3)cc2)cc1 (relative stereo) [Example 1BS] | -43 | 0 | – |
| COc1ccc(N2C(=O)[C@H](CCCc3ccccc3)[C@@H]2c2ccc(-c3ccccc3)cc2)cc1 (relative stereo) [Example 1BT] | 0 | 0 | – |
| C=CCOc1ccc([C@H]2[C@@H](CCCc3ccccc3)C(=O)N2c2ccc(OC)cc2)cc1 (relative stereo) [Example 1BU] | -95 | -39 | – |
| COc1ccc(N2C(=O)[C@H](CCCc3ccccc3)[C@@H]2c2cc(OC)c(OC)c(OC)c2)cc1 (relative stereo) [Example 1BV] | 0 | -11 | – |
| COc1ccc(N2C(=O)[C@H](CCCc3ccccc3)[C@@H]2c2cn(C)c3ccccc23)cc1 (relative stereo) [Example 1BW] | -29 | -9 | – |
| COc1ccc(N2C(=O)[C@H](CCCc3ccccc3)[C@@H]2c2ccnc3ccccc23)cc1 (relative stereo) [Example 1BX] | 0 | 0 | – |

| SMILES | change in vivo at 50 mg/kg [1] [%] | change in vivo at 50 mg/kg [2] [%] | other results |
| --- | --- | --- | --- |
| CCOc1ccc([C@H]2[C@@H](CCCc3ccccc3)C(=O)N2c2ccccc2)cc1 (relative stereo) [Example 1BY] | -72 | -18 | – |
| COc1ccc(N2C(=O)[C@H](CCCc3ccccc3)[C@@H]2c2cc3ccccc3o2)cc1 (relative stereo) [Example 1BZ] | 0 | -9 | – |
| COc1ccc(N2C(=O)[C@@H](CCCc3ccccc3)[C@@H]2c2cc3ccccc3o2)cc1 (relative stereo) [Example 1CA] | 0 | -12 | – |
| COc1ccc([C@H]2[C@@H](CCCc3ccccc3)C(=O)N2c2ccc(O[Si](C)(C)C(C)(C)C)cc2)cc1 (relative stereo) [Example 1CB] | – | – | change in vivo at 50 mg/kg [3]: 0%; change in vivo at 50 mg/kg [4]: 0% |
| COc1ccc([C@H]2[C@@H](CCOc3ccc(F)cc3)C(=O)N2c2ccccc2)cc1 (relative stereo) [Example 1CH] | -95 | -49 | change in vivo at 3 mg/kg [5]: -80%; change in vivo at 3 mg/kg [6]: -24%; change in vivo at 10 mg/kg [5]: -90%; change in vivo at 10 mg/kg [6]: -41% |
| COc1ccc([C@@H]2[C@H](N(C)C)C(=O)N2c2ccccc2)cc1 (relative stereo) [Example 1CJ] | 0 | 0 | – |
| COc1ccc(N2C(=O)[C@@H](CCCc3ccccc3)[C@@H]2c2ccc(SC)cc2)cc1 (relative stereo) [Example 1CM] | 0 | 0 | – |
| COc1ccc([C@@H]2[C@@H](CCOc3ccc(F)cc3)C(=O)N2c2ccc(OC)cc2)cc1 (relative stereo) [Example 5AA] | -93 | -53 | – |
| COc1ccc([C@@H]2[C@@H](CCCc3ccccc3)C(=O)N2c2ccc(F)cc2)cc1 (relative stereo) [Example 5D] | -95 | -38 | change in vivo at 10 mg/kg [5]: -77%; change in vivo at 10 mg/kg [6]: -24%; change in vivo at 30 mg/kg [5]: -94%; change in vivo at 30 mg/kg [6]: -41% |
| COc1ccc([C@@H]2[C@@H](CCCc3ccccc3)C(=O)N2c2cccc(OC)c2)cc1 (relative stereo) [Example 5E] | -91 | -38 | – |
| COc1ccc([C@@H]2[C@@H](CCCc3ccccc3)C(=O)N2c2ccc(Cl)cc2)cc1 (relative stereo) [Example 5G] | -93 | -44 | – |
| CCOc1ccc(N2C(=O)[C@H](CCCc3ccccc3)[C@H]2c2ccc(OC)cc2)cc1 (relative stereo) [Example 5H] | -96 | -57 | – |
| COc1ccc([C@@H]2[C@@H](CCCc3ccccc3)C(=O)N2c2ccc(SC)cc2)cc1 (relative stereo) [Example 5I] | -70 | -26 | – |
| COc1ccc([C@@H]2[C@@H](CCCc3ccccc3)C(=O)N2c2ccc(C)cc2)cc1 (relative stereo) [Example 5J] | -90 | -38 | – |
| COc1ccc(N2C(=O)[C@H](CCCc3ccccc3)[C@H]2c2ccc(OCc3ccccc3)cc2)cc1 (relative stereo) [Example 5T] | -48 | -15 | – |
| C=CCOc1ccc([C@@H]2[C@@H](CCCc3ccccc3)C(=O)N2c2ccc(OC)cc2)cc1 (relative stereo) [Example 5U] | -86 | -48 | – |
| COc1ccc(N2C(=O)[C@H](CCCc3ccccc3)[C@H]2c2ccc(Oc3ccccc3)cc2)cc1 (relative stereo) [Example 5V] | -77 | -37 | – |
